Measured values from ChEMBL document CHEMBL5029164, “JNJ-67569762, A 2-Aminotetrahydropyridine-Based Selective BACE1 Inhibitor Targeting the S3 Pocket: From Discovery to Clinical Candidate” (J Med Chem, 2021).
≈ marks a conversion by molar mass, not a printed value. Calls of active or inactive are those of the source. The calls are words filed in the database; no cut-off is given here.

Experiments:
[1] = Plasma protein binding in dog assessed as unbound fraction at 5 uM after 4.5 hrs by HPLC-MS/MS analysis; type: ADME, cell-free, Canis lupus familiaris
[2] = biological target: T1, Muscarinic acetylcholine receptor M1 (Homo sapiens, UniProt P11229); test: Displacement of [3H]-pirenzepine from human recombinant muscarinic 1 receptor after 60 mins by scintillation counting analysis
T1 sequence (P11229 whole entry): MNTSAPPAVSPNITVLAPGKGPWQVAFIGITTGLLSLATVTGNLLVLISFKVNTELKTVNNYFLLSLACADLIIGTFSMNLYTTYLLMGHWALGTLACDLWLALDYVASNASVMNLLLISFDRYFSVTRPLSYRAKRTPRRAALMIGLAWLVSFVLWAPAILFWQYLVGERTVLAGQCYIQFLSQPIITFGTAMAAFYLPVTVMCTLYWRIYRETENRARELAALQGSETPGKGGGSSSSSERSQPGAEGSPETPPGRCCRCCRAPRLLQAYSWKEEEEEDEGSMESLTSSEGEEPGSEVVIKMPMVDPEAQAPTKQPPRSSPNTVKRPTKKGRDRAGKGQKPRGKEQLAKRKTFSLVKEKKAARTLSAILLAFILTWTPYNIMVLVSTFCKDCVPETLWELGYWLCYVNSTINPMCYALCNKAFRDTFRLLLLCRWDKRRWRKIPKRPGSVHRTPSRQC

[3] = Toxicity in rat measured up to 30 mg/kg, po qd for 14 days; type: organism-based; conditions: in vivo, 336 h, time 14 day
[4] = Cyanide reactivity in human liver microsomes; type: ADME
[5] = Metabolic stability in dog liver microsomes assessed as intrinsic clearance; type: ADME, Canis lupus familiaris, Microsome; conditions: read-out: CLH
[6] = Dissociation constant, pKa of compound by potentiometric method; type: physicochemical
[7] = Toxicity in rat assessed as prolonged QT at 15 mg/kg, po for 14 days; type: organism-based; conditions: in vivo, 336 h, time 14 day
[8] = Inhibition of sodium channel (unknown origin); design: species or system Homo sapiens
[9] = Chromatographic hydrophobicity index, log D of the compound at pH 2.6; type: physicochemical; conditions: buffer
Beta-secretase 2 = biological target: T2, Beta-secretase 2 (Homo sapiens, UniProt Q9Y5Z0); test: Inhibition of BACE2 (unknown origin) using APP harboring Swedish Lys-Met/Asn-Leu mutant-derived peptide as substrate incubated for 2 hrs by FRET assay
T2 sequence (Q9Y5Z0 whole entry): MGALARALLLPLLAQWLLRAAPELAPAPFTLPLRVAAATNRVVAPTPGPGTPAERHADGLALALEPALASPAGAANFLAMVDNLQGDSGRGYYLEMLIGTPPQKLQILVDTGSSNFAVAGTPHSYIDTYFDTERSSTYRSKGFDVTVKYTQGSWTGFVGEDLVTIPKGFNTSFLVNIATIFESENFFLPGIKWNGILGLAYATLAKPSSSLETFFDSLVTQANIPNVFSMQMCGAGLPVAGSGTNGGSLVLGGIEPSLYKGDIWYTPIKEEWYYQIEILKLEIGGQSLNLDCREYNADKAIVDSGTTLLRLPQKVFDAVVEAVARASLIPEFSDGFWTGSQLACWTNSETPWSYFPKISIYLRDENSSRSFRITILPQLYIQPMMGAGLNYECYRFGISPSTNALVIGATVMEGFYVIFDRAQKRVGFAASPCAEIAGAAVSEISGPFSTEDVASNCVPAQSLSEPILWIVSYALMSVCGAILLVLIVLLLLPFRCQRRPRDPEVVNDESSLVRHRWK

Canis lupus familiaris = species: Canis lupus familiaris; test: Reduction in amyloid beta37 levels in Beagle dog CSF; type: functional
[10] = Metabolic stability in human liver microsomes assessed as intrinsic clearance; type: ADME, Microsome; conditions: read-out: CLH
[11] = Plasma protein binding in mouse assessed as unbound fraction at 5 uM after 4.5 hrs by HPLC-MS/MS analysis; type: ADME, cell-free
Mus musculus [12] = test: In vivo inhibition of BACE2 in C57BL/6J mouse assessed as reduction in hair melanin production at 61 mg/kg/day administered via diet for 21 days; type: functional, organism-based; conditions: time 21.0 day
[13] = biological target: Sodium-dependent serotonin transporter (Homo sapiens, UniProt P31645); test: Displacement of [3H]-imipramine from recombinant human 5-HT transporter after 60 mins by scintillation counting analysis
Sodium-dependent serotonin transporter, sequence (P31645 whole entry): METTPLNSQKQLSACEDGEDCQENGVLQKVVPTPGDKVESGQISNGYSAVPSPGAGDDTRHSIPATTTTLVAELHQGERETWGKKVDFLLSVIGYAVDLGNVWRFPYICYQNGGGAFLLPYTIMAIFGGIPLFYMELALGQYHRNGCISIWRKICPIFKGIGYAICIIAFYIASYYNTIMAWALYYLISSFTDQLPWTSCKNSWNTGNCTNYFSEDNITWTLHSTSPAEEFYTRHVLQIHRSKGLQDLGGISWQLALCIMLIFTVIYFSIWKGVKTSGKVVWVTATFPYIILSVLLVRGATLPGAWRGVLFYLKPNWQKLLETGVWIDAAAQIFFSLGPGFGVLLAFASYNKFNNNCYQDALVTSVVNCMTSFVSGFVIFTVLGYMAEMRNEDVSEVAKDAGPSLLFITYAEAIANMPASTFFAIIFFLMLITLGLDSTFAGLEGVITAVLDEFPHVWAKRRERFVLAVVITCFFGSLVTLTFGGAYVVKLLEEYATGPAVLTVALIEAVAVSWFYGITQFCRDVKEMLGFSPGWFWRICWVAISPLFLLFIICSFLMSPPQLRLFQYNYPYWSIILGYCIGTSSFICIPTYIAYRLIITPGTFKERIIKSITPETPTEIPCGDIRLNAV

[14] = Lipophilicity, log D of the compound; type: physicochemical; conditions: octanol/water
[15] = Chromatographic hydrophobicity index, log D of the compound at pH 10.5; type: physicochemical; conditions: buffer
Mus musculus [16] = test: In vivo inhibition of BACE1 in C57BL/6J mouse assessed as reduction in plasma SEZ6L level at 21 to 69 mg/kg,/day administered via diet for 21 days; type: functional, organism-based; conditions: dose lower […], dose upper 69.0 mg/kg, time 21.0 day
[17] = Cardiotoxicity in human iPSC-derived cardiomyocytes assessed as calcium transport at 1 uM measured after 15 to 30 mins by fluorescence assay; type: cell-based; conditions: stem cell-derived cardiomyocyte, time 15-30 min
[18] = Reduction in amyloid beta38 levels in Beagle dog CSF; type: functional, Canis lupus familiaris
[19] = Cardiotoxicity in human iPSC-derived cardiomyocytes assessed as calcium transport at 2.5 uM measured after 15 to 30 mins by fluorescence assay; type: ADME, cell-based; conditions: stem cell-derived cardiomyocyte, time 15-30 min
Adenosine receptor A1 = biological target: T3, Adenosine receptor A1 (Homo sapiens, UniProt P30542); test: Displacement of [3H]-CCPA from human recombinant adenosine A1 receptor after 60 mins by scintillation counting analysis
T3 sequence (P30542 whole entry): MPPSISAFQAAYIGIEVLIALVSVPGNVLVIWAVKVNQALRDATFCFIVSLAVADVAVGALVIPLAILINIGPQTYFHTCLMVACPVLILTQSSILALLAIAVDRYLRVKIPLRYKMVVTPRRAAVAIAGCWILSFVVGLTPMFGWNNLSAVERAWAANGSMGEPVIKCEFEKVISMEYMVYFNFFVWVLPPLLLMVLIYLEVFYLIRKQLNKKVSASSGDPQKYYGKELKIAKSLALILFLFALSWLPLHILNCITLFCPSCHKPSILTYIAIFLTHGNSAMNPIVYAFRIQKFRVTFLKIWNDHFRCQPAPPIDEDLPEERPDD

[20] = Metabolic stability in mouse liver microsomes assessed as intrinsic clearance; type: ADME, Microsome; conditions: read-out: CLH
Cathepsin D = Cathepsin D (Homo sapiens, UniProt P07339); test: Inhibition of human cathepsin D incubated for 3.5 hrs by fluorescence assay
Cathepsin D, sequence (P07339 65-162 limits assumed): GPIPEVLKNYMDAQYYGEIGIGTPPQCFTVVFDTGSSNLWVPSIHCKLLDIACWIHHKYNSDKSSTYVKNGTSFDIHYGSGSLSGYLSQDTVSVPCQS
Cathepsin D, sequence (P07339 169-412 limits assumed): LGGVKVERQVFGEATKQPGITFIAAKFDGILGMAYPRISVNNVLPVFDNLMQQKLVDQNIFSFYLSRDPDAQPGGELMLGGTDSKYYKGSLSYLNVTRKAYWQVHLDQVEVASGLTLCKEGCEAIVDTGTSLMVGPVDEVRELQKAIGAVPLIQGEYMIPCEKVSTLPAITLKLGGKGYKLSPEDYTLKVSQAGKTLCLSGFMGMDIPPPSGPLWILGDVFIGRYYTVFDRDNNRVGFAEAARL

[21] = Glutathione reactivity in human liver microsomes; type: ADME
[22] = Inhibition of calcium channel (unknown origin); design: species or system Homo sapiens
[23] = Cardiotoxicity in human iPSC-derived cardiomyocytes assessed as calcium transport at 0.2 uM measured after 15 to 30 mins; type: ADME, cell-based; conditions: stem cell-derived cardiomyocyte, time 15-30 min
[24] = biological target: Voltage-gated inwardly rectifying potassium channel KCNH2 (Homo sapiens, UniProt Q12809); test: Inhibition of human ERG
Voltage-gated inwardly rectifying potassium channel KCNH2, sequence (Q12809 whole entry): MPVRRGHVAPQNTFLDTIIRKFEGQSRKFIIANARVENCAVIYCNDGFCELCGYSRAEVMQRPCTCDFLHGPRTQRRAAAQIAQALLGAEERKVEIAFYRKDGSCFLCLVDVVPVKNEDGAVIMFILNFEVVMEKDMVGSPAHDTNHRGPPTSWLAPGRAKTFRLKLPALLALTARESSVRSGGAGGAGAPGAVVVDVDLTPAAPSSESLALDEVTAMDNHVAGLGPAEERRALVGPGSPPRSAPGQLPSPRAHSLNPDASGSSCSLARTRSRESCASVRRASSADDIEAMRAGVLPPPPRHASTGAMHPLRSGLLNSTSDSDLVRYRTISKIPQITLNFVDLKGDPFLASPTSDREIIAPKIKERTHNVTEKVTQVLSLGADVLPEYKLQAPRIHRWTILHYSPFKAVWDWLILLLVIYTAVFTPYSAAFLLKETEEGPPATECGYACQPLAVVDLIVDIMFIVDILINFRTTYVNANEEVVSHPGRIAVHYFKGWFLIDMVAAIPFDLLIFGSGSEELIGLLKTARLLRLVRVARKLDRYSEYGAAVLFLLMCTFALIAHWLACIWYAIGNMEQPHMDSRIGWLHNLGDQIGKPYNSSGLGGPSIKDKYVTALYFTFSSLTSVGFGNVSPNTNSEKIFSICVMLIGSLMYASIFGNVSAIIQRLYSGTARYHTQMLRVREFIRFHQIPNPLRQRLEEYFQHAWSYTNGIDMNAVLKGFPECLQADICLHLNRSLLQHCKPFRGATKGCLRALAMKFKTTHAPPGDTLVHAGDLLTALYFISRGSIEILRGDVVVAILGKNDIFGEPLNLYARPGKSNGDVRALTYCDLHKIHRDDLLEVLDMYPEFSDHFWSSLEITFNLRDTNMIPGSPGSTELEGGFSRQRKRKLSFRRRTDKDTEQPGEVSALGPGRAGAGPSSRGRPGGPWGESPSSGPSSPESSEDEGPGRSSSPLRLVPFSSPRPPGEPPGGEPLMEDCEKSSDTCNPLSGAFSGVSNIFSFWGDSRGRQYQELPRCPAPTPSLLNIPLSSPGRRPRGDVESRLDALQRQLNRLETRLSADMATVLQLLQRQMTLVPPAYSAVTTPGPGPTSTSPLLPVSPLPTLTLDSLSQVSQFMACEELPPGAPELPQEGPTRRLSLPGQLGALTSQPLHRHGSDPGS

Question: Which results are given for `CCS(=O)(=O)[C@]1(C)CC[C@@](CF)(c2cc(NC(=O)c3cc4c(cn3)OC(F)(F)O4)ccc2F)N=C1N`?
Answer: fraction unbound at 4.5 h, 5 µM [1]: 0.122; Ki [2]: 7200 nM; Activity [3]: Non-Toxic; Activity [4]: Not Active; microsomal CLint [5]: < 7.7 µL/min/mg; pKa [6]: 7.08; Activity [7]: Toxic; IC50 [8]: 1700 nM; chromatographic logD [9]: 0.89; IC50 (Beta-secretase 2): 195 nM; Activity (Canis lupus familiaris): Dose-Dependent Effect; microsomal CLint [10]: < 7.7 µL/min/mg; fraction unbound at 4.5 h, 5 µM [11]: 0.035; inhibition (Mus musculus [12]): inactive; Ki [13]: 1100 nM; logD [14]: 1.24; chromatographic logD [15]: 3.14; inhibition (Mus musculus [16]): Active; Activity [17]: Non-Toxic; EC80 [18]: 0.0425 µg/mL (≈ 0.0801 µM); Activity [19]: Toxic; Ki (Adenosine receptor A1): 7400 nM; microsomal CLint [20]: 16.4 µL/min/mg; IC50 (Cathepsin D): > 100000 nM; Activity [21]: Not Active; IC50 [22]: 1200 nM; Activity [23]: Non-Toxic; IC50 [24]: > 10000 nM
